# According to patent US7531575B2, “Method of modulating cellular activity and agents useful for same” (Eberhard-Karls-Universität Tübingin, priority 2002, dated 2009):
# Assays:
# Type in all cases: cell-based, murine
# [1] = system: iNOS; assay: iNOS activity by Griess assay (nitrite formation), LPS-stimulated N9 microglia; conditions: N9 cells
# Source text: (§1) TNL was a generous gift of Kissei Pharmaceuticals, LPC (Escherichia coli, 0127:BS), phorbol 12-myristate 13-acetate (PMA) and dexamethasone (DEX) were obtained from Sigma, BAY 11-7082 (BAY), NF-κB SN50 inhibitory peptide (SN50), GF 109203X (GFX) and rottlerin (ROT) were purchased from Biomol. PD098059 (PD) was obtained from Calbiochem. Purified murine interferon-γ (IFN-γ) was purchased from Roche Diagnostics. N9 murine microglial cells were a kind gift from P. Ricciardi-Castagnoli (Righi, M. et al. 1989 supra). Cells were cultured in Dulbecco's modified Eagle's medium (DMEM) supplemented with 10% fetal calf serum (FCS), 2 mM glutamine, penicillin (100 unit/mL) and streptomycin (100 μg/mL) and maintained at 37° in an atmosphere of 5% CO2. Viability was assessed by crystal violet staining.
# iNOS activity was assessed by the Griess assay (Platten, M., Wick, W., Wischhusen, J. and Weller, M. Br J Pharmacol 134(6):1279-1284, 2001). Briefly, conditioned supernatant was incubated with an equal volume of Griess reagent containing 1% sulphanilamide, 0.1% naphthylethylenediamine dihydrochloride and 2.5% H3PO4 (Green, L. C., Wagner, D. A., Glogowski, J., Skipper, P. I., Wishnok, J. S, and Tannenbaum, S. R. Anal. Biochem., 126:131-138, 1982) for 5 min. at room temperature. The absorbance was measured at 546 nm. NaNO2 diluted in DMEM served as a standard. To control for cell number, the cells were stained with crystal violet. iNOS activity is expressed as nitrite accumulated in 48 hr/10^5 cells.
# [2] = system: iNOS; assay: iNOS protein immunoblot, LPS-stimulated N9 microglia
# Source text: as §1
# For the preparation of whole cell lysates, the cells were lysed in 0.1 M Tris-HCl (pH 7.2) containing 0.1% NP40, 0.1 mM EDTA and 5 μg/mL phenylmethylsulphonyl fluoride. Twenty micrograms protein was separated by 10-12% SDS-PAGE and electroblotted on nitrocellulose membrane. Equal loading was controlled by Ponceau S staining. Immunodetection was performed using the following antibodies: anti-iNOS rabbit polyclonal antibody (1:1000, Cayman), antiphospho-IκBα mouse monoclonal antibody (1:1000), anti-PKCδ mouse monoclonal antibody (1:2000), antiphospho-MARCKS rabbit polyclonal antibody (1:1000), antiphospho-ERK-1/2, antiphospho-AKT, antiphospho-p38 mouse monoclonal antibodies (1:2000), anti-ERK-1/2, anti-AKT mouse monoclonal antibodies (1:500, all from Signal Transduction Laboratories). Bands were visualized using horseradish peroxidase-conjugated anti-rabbit IgG (1:4000 SantaCruz) or anti-mouse IgG (1:4000, Amersham).
# [3] = system: PKCδ; assay: PKCδ immunoblot after long-term PMA in N9 microglia; conditions: N9 cells, PMA 100 nM, 24 hr treatment, data not shown
# Source text: as §1
# (§2) For the preparation of whole cell lysates, the cells were lysed in 0.1 M Tris-HCl (pH 7.2) containing 0.1% NP40, 0.1 mM EDTA and 5 μg/mL phenylmethylsulphonyl fluoride. Twenty micrograms protein was separated by 10-12% SDS-PAGE and electroblotted on nitrocellulose membrane. Equal loading was controlled by Ponceau S staining. […]
# [4] = system: ERK-1/2; assay: phospho-ERK-1/2 immunoblot after PKC depletion, LPS-stimulated N9 microglia; conditions: N9 cells, prolonged pretreatment with PMA 100 nM 24 hr, then LPS 10 μg/mL
# Source text: as §1, §2
# [5] = system: iNOS; assay: iNOS activity by Griess assay (NO2 release), IFN-γ-stimulated N9 microglia; conditions: N9 cells, IFN-γ 200 u ml, 48 h, dexamethasone 500 nM
# Description: Tranilast was a generous gift of Kissei Pharmaceuticals (Nagano, Japan). Murine recombinant IFN-γ was purchased from Boehringer (Mannheim, Germany). Dexamethasone (DEX) was obtained from Sigma (Deisenhofen, Germany). N9 murine microglial cells were a kind gift from P. Ricciardi-Castagnoli (Milano, Italy) (Righi, M., Mori, L., De Libero, G., Sironi, M., Biondi, A., Mantovani, A., Donini, S. D. and Ricciardi-Castagnoli, P. Eur J Immunol 19(8):1443-1448, 1989). The cells were cultured in Dulbecco's modified Eagle's medium (DMEM) supplemented with 10% foetal calf serum (FCS), 2 mM glutamine and penicillin ([…])/streptomycin (100 μg ml), and maintained at 37° C. in an atmosphere of 5% CO2. Viability was assessed by crystal violet staining.
# iNOS activity was assessed by the Griess assay as described elsewhere (Rieger, J., Stander, M., Loschmann, P. A., Heneka, M., Dichgans, J., Klockgether, T. and Weller, M., Oncogene, 17:2323-2332, 1998). Briefly, conditioned supernatant (100 μl) was incubated with an equal volume of 1% sulphanilamide/0.1% naphthyl ethylene diamine dihydrochloride/2.5% H3PO4 (Griess reagent) (Green, L. C., Wagner, D. A., Glogowski, J., Skipper, P. I., Wishnok, J. S, and Tannenbaum, S. R., Anal. Biochem., 126:131-138, 1982), incubated for 5 min at room temperature, and the absorbance at […] determined. Solutions of NaNO2 diluted in DMEM served as standards. The absorbance readings resulting from DMEM alone were subtracted from the sample values. Cell density was assessed using crystal violet staining to control for differences in cell proliferation. iNOS activity is thus expressed here as NO2 accumulated per 48 h per 10^5 cells.
smiles,measurement,setting,value
Cc1ccc(S(=O)(=O)/C=C/C#N)cc1 [BAY],LPS-stimulated NO release,"[1]; LPS, BAY 20 μM, vehicle-treated cells 14.6±1.0",11.1±0.7 μM/10^4 cells/48 hr
CN(C)CCCn1cc(C2=C(c3c[nH]c4ccccc34)C(=O)NC2=O)c2ccccc21 [GFX],PMA superinduction of iNOS protein in LPS-stimulated cells,"[2]; PMA 100 nM 15 min, LPS 10 μg/mL 24 hr, GFX 2 μM",abolished
COc1cccc(-c2cc(=O)c3ccccc3o2)c1N [PD],LPS-mediated nitrite formation,"[1]; LPS, 40 μM PD, vehicle-treated cells 16.6±0.3",10.7±0.4 μM/10^4 cells/48 hr
"CCCCCCCCCCCCCC(=O)O[C@@H]1[C@@H](C)[C@@]2(O)[C@@H](C=C(CO)C[C@]3(O)C(=O)C(C)=C[C@@H]23)[C@@H]2C(C)(C)[C@]12OC(C)=O [PMA, phorbol 12-myristate 13-acetate]",PKCδ protein level,[3],effectively depleted
same,reduction of iNOS protein (densitometry),"[2]; N9 cells, 24-hr exposure to PMA 100 nM, then LPS 10 μg/mL for 24 hr",80%
same,LPS-mediated iNOS protein expression,"[2]; N9 cells, PMA 100 nM pretreatment 15 min, LPS 10 μg/mL, 24 hr",superinduction
same,iNOS protein expression in the absence of LPS,"[2]; N9 cells, PMA 100 nM, no LPS",did not induce
same,LPS-mediated nitrite formation,"[1]; PMA 100 nM pretreatment 15 min, LPS 10 μg/mL, 48 hr",superinduction
same,LPS-induced ERK-1/2 phosphorylation,[4],failed to induce
"CC(=O)c1c(O)c(C)c(O)c(Cc2c(O)c3c(c(C(=O)/C=C/c4ccccc4)c2O)OC(C)(C)C=C3)c1O [ROT, rottlerin]",iNOS protein accumulation after LPS,"[2]; N9 cells, LPS 10 μg/mL 24 hr, ROT at concentrations as low as 5 μM",strongly inhibited
C[C@@H]1C[C@H]2[C@@H]3CCC4=CC(=O)C=C[C@]4(C)[C@@]3(F)[C@@H](O)C[C@]2(C)[C@@]1(O)C(=O)CO [dexamethasone],reduction of the amount of NO2 (Griess assay),[5],75%
